Like-named read-outs stand apart in the source and are kept apart here.
What was measured:
GST-Xa-hAAK1 = target: T1, GST-Xa-hAAK1 (Homo sapiens, UniProt Q2M2I8); test: Caliper assay; format: biochemical; conditions: aryl ethers
T1 construct: made in house
Protocol: The assays were performed in U-bottom 384-well plates. The final assay volume was 30 μl prepared from 15 μl additions of enzyme and substrates (fluoresceinated peptide (5-FAM)-Aha-[…]-NH2 and ATP) and test compounds in assay buffer (10 mM Tris-HCL pH 7.4, 10 mM MgCl2, 0.01% Tween-20 and 1.0 mM DTT). The reactions were initiated by the combination of bacterially expressed, GST-Xa-hAAK1 with substrates and test compounds. The reactions were incubated at room temperature for 3 hours and terminated by adding 60 μl of 35 mM EDTA buffer to each sample. The reactions were analyzed on the Caliper LabChip 3000 (Caliper, Hopkinton, Mass.) by electrophoretic separation of the fluorescent substrate and phosphorylated product. […] The final concentration of reagents in the assays are ATP, 22 μM; (5-FAM)-Aha-[…]-NH2, 1.5 μM; GST-Xa-hAAK1, 3.5 nM; and DMSO, 1.6%. Dose response curves were generated to determine the concentration required inhibiting 50% of kinase activity (IC50). Compounds were dissolved at 10 mM in dimethylsulfoxide (DMSO) and evaluated at eleven concentrations. IC50 values were derived by non-linear regression analysis.

[1] = target: T2, AAK1 (full length human) in transfected HEK293F cells (Homo sapiens, UniProt Q2M2I8); test: HEK281 cell-based assay (phospho-mu2 Western blot); conditions: read-out: CBA IC50
T2 construct: expressed in transfected cells; host or cells: HEK293F

[2] = tested on: formalin-induced paw flinching; test: formalin paw test; format: in vivo; conditions: mice
Protocol: See example 5.4.1, above. The same test was used to confirm that the administration of an AAK1 inhibitor can also affect pain response.
Mice were tested for nociception with Automatic Nociception Analyzers (purchased from the Ozaki lab at University of California, San Diego). A metal band was placed around the left hind paw of each mouse with superglue 30 minutes prior to testing. After the 30-minute acclimation period, 20 μl of 5% formalin was subcutaneously injected in the dorsal surface of the left hind paw. Mice were individually housed in cylindrical chambers for 45 minutes. Fresh 5% formalin solution was prepared by diluting formaldehyde (Formalde-fresh 20%, Fisher Scientific, Fair Lawn, N.J.) with distilled water. Investigatory compounds were administered 30 minutes prior to formalin injection.
A computer software recorded flinches per minute, total flinches for Phase I (acute phase=first 8 minutes), and total flinches for Phase II (tonic phase between 20-40 minutes) through an electromagnetic field. See Yaksh T L, Ozaki G, McCumber D, Rathbun M, Svensson C, Malkmus S, Yaksh M C. An automated flinch detecting system for use in the formalin nociceptive bioassay. J Appl Physiol., 2001; 90:2386-402.
Various compounds of the invention were tested at different doses. Gabapentin and pregabalin were used as positive controls. Results are shown below in Table 2, wherein “*” means an effect equal to or greater than 50 percent of that of gabapentin at 200 mpk, “**” means an effect equal to or greater than 100 percent of that of gabapentin at 200 mpk, “sc” means subcutaneous administration, “ip” means in intraperitoneal administration, and “po” means oral administration.

[3] = HEK281 cell-based assay, pyrazolo[1,5-a]pyrimidine-based inhibitors

T1 sequence (Q2M2I8 whole entry): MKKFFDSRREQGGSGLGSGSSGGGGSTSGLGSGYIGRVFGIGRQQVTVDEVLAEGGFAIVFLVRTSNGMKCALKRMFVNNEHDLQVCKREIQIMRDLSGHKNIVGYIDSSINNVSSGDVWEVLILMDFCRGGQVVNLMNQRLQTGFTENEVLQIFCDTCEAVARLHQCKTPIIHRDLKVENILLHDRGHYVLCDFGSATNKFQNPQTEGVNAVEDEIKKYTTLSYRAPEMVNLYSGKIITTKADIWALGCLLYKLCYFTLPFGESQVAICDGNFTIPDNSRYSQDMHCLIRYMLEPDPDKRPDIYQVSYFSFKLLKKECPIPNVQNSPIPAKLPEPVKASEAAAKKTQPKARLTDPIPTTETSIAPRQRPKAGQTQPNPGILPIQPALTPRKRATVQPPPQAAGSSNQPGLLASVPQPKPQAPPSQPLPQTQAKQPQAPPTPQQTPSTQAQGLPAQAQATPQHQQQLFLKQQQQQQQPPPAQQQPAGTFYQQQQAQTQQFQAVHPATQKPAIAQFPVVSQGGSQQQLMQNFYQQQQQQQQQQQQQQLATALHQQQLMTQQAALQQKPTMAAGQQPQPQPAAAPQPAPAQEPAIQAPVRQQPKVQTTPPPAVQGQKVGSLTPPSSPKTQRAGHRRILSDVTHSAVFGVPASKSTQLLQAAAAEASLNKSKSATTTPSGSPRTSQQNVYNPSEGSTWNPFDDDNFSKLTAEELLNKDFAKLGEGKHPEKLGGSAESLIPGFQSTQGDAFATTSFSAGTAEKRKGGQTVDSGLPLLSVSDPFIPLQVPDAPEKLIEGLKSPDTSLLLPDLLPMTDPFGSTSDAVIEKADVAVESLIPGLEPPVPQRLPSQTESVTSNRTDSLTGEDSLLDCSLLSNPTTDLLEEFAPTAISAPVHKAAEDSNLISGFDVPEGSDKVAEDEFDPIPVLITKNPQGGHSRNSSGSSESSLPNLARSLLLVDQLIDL
T2 sequence (Q2M2I8 1-863 isoform Q2M2I8-2): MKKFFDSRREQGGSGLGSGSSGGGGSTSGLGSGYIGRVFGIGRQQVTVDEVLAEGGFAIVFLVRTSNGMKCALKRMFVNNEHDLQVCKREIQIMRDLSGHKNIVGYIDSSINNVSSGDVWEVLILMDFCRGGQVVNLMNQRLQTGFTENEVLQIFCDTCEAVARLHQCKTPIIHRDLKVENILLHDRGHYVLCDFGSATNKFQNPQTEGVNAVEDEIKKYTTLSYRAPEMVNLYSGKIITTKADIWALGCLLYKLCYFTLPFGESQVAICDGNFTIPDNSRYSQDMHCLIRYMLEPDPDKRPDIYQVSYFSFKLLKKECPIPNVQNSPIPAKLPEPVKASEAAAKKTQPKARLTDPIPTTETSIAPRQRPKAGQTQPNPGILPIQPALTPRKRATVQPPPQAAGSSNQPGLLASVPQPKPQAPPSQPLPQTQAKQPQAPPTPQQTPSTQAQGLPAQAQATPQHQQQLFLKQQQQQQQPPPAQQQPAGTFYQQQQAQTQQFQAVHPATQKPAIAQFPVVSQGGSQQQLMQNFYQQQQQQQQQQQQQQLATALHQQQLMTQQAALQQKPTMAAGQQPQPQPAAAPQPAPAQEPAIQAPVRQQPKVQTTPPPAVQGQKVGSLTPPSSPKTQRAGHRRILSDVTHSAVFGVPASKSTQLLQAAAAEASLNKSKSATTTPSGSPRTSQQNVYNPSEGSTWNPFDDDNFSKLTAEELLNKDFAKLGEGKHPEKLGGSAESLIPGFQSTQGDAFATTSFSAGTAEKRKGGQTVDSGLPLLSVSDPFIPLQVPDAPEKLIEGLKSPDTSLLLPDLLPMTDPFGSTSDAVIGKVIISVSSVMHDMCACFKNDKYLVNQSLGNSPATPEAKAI

`N[C@@H](COc1ccc2c(c1)OCc1cnccc1-2)Cc1ccccc1` showed an IC50 (GST-Xa-hAAK1; numeric values) of 0.293 µM.

`CC(C)C[C@@H](N)COc1ccc2c(c1)OC(C)c1cnccc1-2` (stereo partly shown) was tested, and the IC50 (GST-Xa-hAAK1; class symbols) was 0.01 to 0.1 µM and the IC50 ([1]; aryl ethers, numeric values) was greater than 0.3 µM.

With `CCc1cc2c(cc1OC[C@@H](N)CC(C)C)OC(CC)c1cnccc1-2` (stereo partly shown) the IC50 (GST-Xa-hAAK1; class symbols) was 0.01 to 0.1 µM and the IC50 ([1]; aryl ethers, numeric values) was 0.018 µM.

For `CCC1Oc2cc(OC[C@@H](N)CC(C)C)ccc2-c2ccncc21` (stereo partly shown), the IC50 (GST-Xa-hAAK1; numeric values) was 0.012 µM and the IC50 ([1]; aryl ethers, numeric values) was 0.056 µM.

Compound `CC(C)C[C@H](N)COc1ccc2c(c1)OCc1cnc(N)cc1-2` has an IC50 (GST-Xa-hAAK1; class symbols) of 0.001 to 0.01 µM and an IC50 ([1]; aryl ethers, class symbols) of 0.001 to 0.01 µM.

`CC(C)C[C@H](N)COc1cc2c(cc1Br)-c1ccncc1CO2` showed an IC50 (GST-Xa-hAAK1; numeric values) of 0.00086 µM and an IC50 ([1]; aryl ethers, numeric values) of 0.0025 µM.

`COc1ncccc1-c1cnc2ccc(N3CC[C@H](N(C)C(=O)OC(C)C)C3)nn12` [(S)-isopropyl (1-(3-(2-methoxypyridin-3-yl)imidazo[1,2-b]pyridazin-6-yl)pyrrolidin-3-yl)(methyl)carbamate] was tested, and the Effect ([2]; 10 mpk po) was “* (an effect equal to or greater than 50% of that of gabapentin at 200 mpk)”, the Effect ([2]; 30 mpk po) was “** (an effect equal to or greater than 100% of that of gabapentin at 200 mpk)” and the Effect ([2]; 60 mpk po) was “** (an effect equal to or greater than 100% of that of gabapentin at 200 mpk)”.

With `COc1ccccc1-c1cnn2ccc(NC[C@@H]3CCCN3C(=O)OC(C)(C)C)nc12` [(S)-tert-butyl 2-(((3-(2-methoxyphenyl)pyrazolo[1,5-a]pyrimidin-5-yl)amino)methyl)pyrrolidine-1-carboxylate] the IC50 [1, 3] was no more than 0.01 µM, the Effect ([2]; 10 mpk sc) was “* (an effect equal to or greater than 50% of that of gabapentin at 200 mpk)” and the Effect ([2]; 60 mpk sc) was “* (an effect equal to or greater than 50% of that of gabapentin at 200 mpk)”.

In the case of `CC(C)(C)OC(=O)N1CCC[C@H]1CNc1ccc2ncc(-c3ccc(CN)cc3)n2n1` [(S)-tert-butyl 2-(((3-(4-(aminomethyl)phenyl)imidazo[1,2-b]pyridazin-6-yl)amino)methyl)pyrrolidine-1-carboxylate], the Effect ([2]; 60 mpk sc) is reported as “** (an effect equal to or greater than 100% of that of gabapentin at 200 mpk)”.

With `CC(C)(C)OC(=O)N1CCC[C@H]1CNc1ccn2ncc(-c3ccncc3)c2n1` [(S)-tert-butyl 2-(((3-(pyridin-4-yl)pyrazolo[1,5-a]pyrimidin-5-yl)amino)methyl)pyrrolidine-1-carboxylate] the IC50 [1, 3] was no more than 0.01 µM and the Effect ([2]; 30 mpk sc) was “** (an effect equal to or greater than 100% of that of gabapentin at 200 mpk)”.

`CC(C)(C)OC(=O)N1CCC[C@H]1CNc1ccc2ncc(Br)n2n1` [(S)-tert-butyl 2-(((3-bromoimidazo[1,2-b]pyridazin-6-yl)amino)methyl)pyrrolidine-1-carboxylate] was tested, and the Effect ([2]; 30 mpk sc) was “** (an effect equal to or greater than 100% of that of gabapentin at 200 mpk)” and the Effect ([2]; 60 mpk sc) was “** (an effect equal to or greater than 100% of that of gabapentin at 200 mpk)”.

`NCC1(CC(=O)O)CCCCC1` [Gabapentin, reference compound] was tested, and the Effect ([2]; 50 mpk sc) was “* (an effect equal to or greater than 50% of that of gabapentin at 200 mpk)” and the Effect ([2]; 200 mpk sc) was “** (an effect equal to or greater than 100% of that of gabapentin at 200 mpk)”.

With `CCCCNc1ccc2ncc(-c3ccc(C(=O)NCCN)cc3)n2n1` [N-(2-aminoethyl)-4-(6-(butylamino)imidazo[1,2-b]pyridazin-3-yl)benzamide] the Effect ([2]; 30 mpk ip) was “** (an effect equal to or greater than 100% of that of gabapentin at 200 mpk)”.

In the case of `CC(C)C[C@H](CN)CC(=O)O` [Pregabalin, reference compound], the Effect ([2]; 50 mpk sc) is reported as “* (an effect equal to or greater than 50% of that of gabapentin at 200 mpk)”.

`CC(C)C[C@@H](N)COc1ccc2c(c1)OCc1cnccc1-2` [drawing 25] gave an IC50 (GST-Xa-hAAK1; class symbols) of 0.01 to 0.1 µM.

`CC(C)C[C@H](N)COc1ccc2c(c1)OC(C)c1cnccc1-2` (stereo partly shown) [drawing 30] was tested, and the IC50 (GST-Xa-hAAK1; numeric values) was 0.0049 µM.

`CC(C)C[C@H](N)COc1ccc2c(c1)OC(C)c1cnccc1-2` (stereo partly shown) [drawing 31] gave an IC50 (GST-Xa-hAAK1; class symbols) of 0.01 to 0.1 µM and an IC50 ([1]; aryl ethers, numeric values) of 0.025 µM.

With `CC(C)C[C@H](N)COc1ccc2c(c1)OC(C1CC1)c1cnccc1-2` (stereo partly shown) [drawing 36] the IC50 (GST-Xa-hAAK1; class symbols) was 0.1 to 1 µM.

Compound `CC(C)C[C@H](N)COc1ccc2c(c1)OC(C1CC1)c1cnccc1-2` (stereo partly shown) [drawing 37] has an IC50 (GST-Xa-hAAK1; class symbols) of 0.001 to 0.01 µM and an IC50 ([1]; aryl ethers, numeric values) of 0.018 µM.

For `COc1ccccc1-c1cnc2ccc(N3CCN(C(=O)OC(C)C)CC3)nn12` [isopropyl 4-(3-(2-methoxyphenyl)imidazo[1,2-b]pyridazin-6-yl)piperazine-1-carboxylate], the Effect ([2]; 30 mpk sc) was “** (an effect equal to or greater than 100% of that of gabapentin at 200 mpk)” and the Effect ([2]; 60 mpk sc) was “** (an effect equal to or greater than 100% of that of gabapentin at 200 mpk)”.

In the case of `COc1ccccc1-c1cnn2ccc(N3CCN(C(=O)OC(C)C)CC3)nc12` [isopropyl 4-(3-(2-methoxyphenyl)pyrazolo[1,5-a]pyrimidin-5-yl)piperazine-1-carboxylate], the Effect ([2]; 30 mpk sc) is reported as “** (an effect equal to or greater than 100% of that of gabapentin at 200 mpk)”.

With `COc1ncccc1-c1cnn2ccc(N3CCN(C(=O)OC(C)C)CC3)nc12` [isopropyl 4-(3-(2-methoxypyridin-3-yl)pyrazolo[1,5-a]pyrimidin-5-yl)piperazine-1-carboxylate] the Effect ([2]; 10 mpk po) was “* (an effect equal to or greater than 50% of that of gabapentin at 200 mpk)” and the Effect ([2]; 30 mpk po) was “** (an effect equal to or greater than 100% of that of gabapentin at 200 mpk)”.

`CN(CCNc1ccc2ncc(-c3ccc(C(N)=O)cc3)n2n1)C(=O)OC(C)(C)C` [tert-butyl (2-((3-(4-carbamoylphenyl)imidazo[1,2-b]pyridazin-6-yl)amino)ethyl)(methyl)carbamate] was tested, and the Effect ([2]; 60 mpk sc) was “** (an effect equal to or greater than 100% of that of gabapentin at 200 mpk)” and the Effect ([2]; 100 mpk po) was “** (an effect equal to or greater than 100% of that of gabapentin at 200 mpk)”.

Source: patent US20150164899A1, “INHIBITION OF ADAPTOR ASSOCIATED KINASE 1 FOR THE TREATMENT OF PAIN” (priority 2012, published 2015)
